Patent US9480674B2, “Method and composition for treating acne” (THESAN PHARMACEUTICALS, INC., priority 2012, dated 2016)
“Also recorded” adds a separate entry of the source. Read-outs that look alike come from different tables or passages of the source.

How the values were obtained:
[1] = tested on: CYP1A1 expression in sebaceous glands; assay: Focal expression of AhR activation (CYP1A1 immunohistochemistry) in sebaceous gland cell types of topically treated mouse ears
Source text: The embodiment described here entails treating the ears of C57BL/6 mice via the topical route, following established protocols to determine dose-response and time-response relationships, with sebum reducing AhR pathway agonists previously characterized for their in vivo activation of the receptor, using, for example the EROD and CALUX methods which are widely used in this field (see Table 1).
Following topical treatment, the ears are sampled, and CYP1A1 expression is examined by immunohistochemical analysis using a specific antibody.
The study diagrammed in FIG. 1 and for which photomicrographs are provided in FIG. 2 entailed treating mice daily for one week with a topical AhR pathway agonist, with ears taken for examination at Day 7. Ears were recovered and fixed in formalin, paraffin embedded and then sections were prepared and positioned on slides for immunohistochemical staining. The specific antibody used in this instance was rabbit anti-rat CYP1A1 polyclonal antibody (Millipore AB1247). The AhR pathway agonists used in the example in FIG. 2 were as follows: • 1B) 6-formylindolo[3,2-b]carbozole (NSA4/FICZ); • 2B) 8,13-Dihydroindolo[2′,3′:3,4]pyrido[2,1-b]quinazolin-5(7H)-one (NSA1/rutecarpine); • 3B) 3-phenyl-1H-benzo[f]chromen-1-one (NSA2); • 4B)_2,3,7,8-tetrachlorodibenzo-p-dioxin (NSA3/TCDD).
In addition to the particular topography of the isthmus region, these cells are characterized by the expression of L-RIG1, a marker of isthmic multi-potent clonogenic cells (Jensen et al. (2009),).

[2] = tested on: FADS2, AWAT1, ELOVL3 mRNA; assay: Real-Time QRT-PCR of mRNA of sebogenic enzymes in ears of mice treated for five weeks; assay type: in vivo, C57BL/6 mice; details: mouse ears, 0.5% in acetone (TCDD 0.0005%), vs vehicle
Source text: At the end of that time the animals were sacrificed and the ears removed for further analysis.

sebum = assay: Sebosuppressive activity on human skin (sebumetric casual level, sebutape, clinical observation); assay type: in vivo, man; details: for Sebosuppressive activity in man (reduction in sebum): NSA-1, NSA-2, NSA-8, NSA-9 tested at 0.5%
Description: The sebum inhibition index is calculated by counting the number of mature and differentiated cells in relation to the total number of cells in the sebaceous glands. A decrease in mature and differentiated cells indicates blocking of sebogenesis. The effect on human skin is determined by sebumetric examination using what is known as the “casual level” (Dobrev (2007)).

AhR (CYP1A1 induction) = molecular target: T1, AhR (CYP1A1 induction) (Homo sapiens, UniProt P35869); assay: EROD (ethoxyresorufin-O-deethylase) assay, CYP1A1 induction as reporter of AhR activation in vitro; assay type: cell-based; details: at 10 μM
T1 construct: endogenous in cells
T1 sequence (P35869 11-848): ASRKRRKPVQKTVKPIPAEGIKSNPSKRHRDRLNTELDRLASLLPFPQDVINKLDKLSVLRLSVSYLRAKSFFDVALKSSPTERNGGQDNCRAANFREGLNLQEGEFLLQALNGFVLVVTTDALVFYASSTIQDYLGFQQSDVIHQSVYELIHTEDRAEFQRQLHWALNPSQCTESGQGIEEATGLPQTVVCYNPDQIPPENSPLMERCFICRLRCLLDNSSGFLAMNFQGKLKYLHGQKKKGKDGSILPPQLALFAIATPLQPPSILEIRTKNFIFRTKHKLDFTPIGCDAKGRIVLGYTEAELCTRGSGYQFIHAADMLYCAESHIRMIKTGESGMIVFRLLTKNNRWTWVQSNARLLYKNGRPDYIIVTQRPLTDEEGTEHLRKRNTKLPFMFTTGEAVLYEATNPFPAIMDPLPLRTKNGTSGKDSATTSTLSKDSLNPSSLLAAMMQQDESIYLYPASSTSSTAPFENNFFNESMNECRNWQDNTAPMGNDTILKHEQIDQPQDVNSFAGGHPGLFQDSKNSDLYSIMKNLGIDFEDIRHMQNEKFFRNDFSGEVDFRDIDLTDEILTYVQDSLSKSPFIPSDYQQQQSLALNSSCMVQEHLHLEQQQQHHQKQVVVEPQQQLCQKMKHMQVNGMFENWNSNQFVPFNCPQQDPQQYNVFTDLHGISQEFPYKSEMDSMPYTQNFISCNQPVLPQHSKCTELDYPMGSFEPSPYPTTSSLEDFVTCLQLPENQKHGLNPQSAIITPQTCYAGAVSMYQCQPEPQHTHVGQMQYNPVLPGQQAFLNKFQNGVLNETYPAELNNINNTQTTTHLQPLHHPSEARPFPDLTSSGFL
Source text: As used herein, the term EROD refers to the ethoxyreorufin-O-deethylase (EROD) assay which monitors the induction of the xenobiotic-metabolizing enzyme cytochrome P-450 1A1(CYP1A1) and is a widely used as a reporter for measuring activation of the AhR in vitro (Zamaratskaia et al. (2009), Behnisch et al. (2001),)

[3] = in rodents; Adedoyin et al. (1993); cited from earlier work
sebaceous glands = assay: Dose effect in mice: sebosuppressive effect and tolerability of topical treatment of the ears; assay type: in vivo
Description: For these dose-effects tests, C57BL/6 mice were treated for three to five weeks, five days per week on the ears and in three concentrations, namely 0.1, 0.5, and 1% of NSA-2. The sebosuppressive effect was analyzed at the third week although expression thereof starts after one week.
Drug tolerability, in the absence of MADISH-type cyst production, was assessed after five weeks' treatment.

[4] = Blood assay by HPLC in topically treated mice; assay type: in vivo, C57BL/6 mice; details: 5 nM sensitivity
[5] = in vivo; cited from earlier work

Row | Structure (SMILES) | Activation of the AhR pathway (CYP1A1 staining) in the sebaceous cell sub-populations, stage reached ([1]; mouse, in vivo) | Inhibition of mRNA expression encoding the three sebogenic enzymes (FADS2, AWAT1, ELOVL3) [2] | Sebosuppressive activity in man (reduction in sebum) (sebum) | other results
1 | O=Cc1c2c(cc3c1=Nc1ccccc1-3)=Nc1ccccc1-2 [NSA 4, 6-formylindolo[3,2-b]carbazole] | limited distribution in the sebaceous glands when compared with NSA-2 | – | – | –
2 | O=c1cc(-c2ccccc2)oc2c1ccc1ccccc12 [NSA-8, 2-phenyl-4H-benzo[h]chromen-4-one] | – | slightly stimulating effect | neither 2-phenyl-4H-benzo[h]chromen-4-one nor 2-phenyl-4H-chromen-4-one exhibited any reduction in sebum | –
3 | O=c1c2ccccc2nc2n1CCc1c-2[nH]c2ccccc12 [NSA 1, 8,13-Dihydroindolo[2′,3′:3,4]pyrido[2,1-b]quinazolin-5(7H)-one] | activates the AhR pathway in two of the cell sub-populations in mice | – | potentially useful sebosuppressive activity in man when tested at the same concentrations (0.5%), although weaker than that of NSA-2 | –
4 | O=c1cc(-c2ccccc2)oc2ccc3ccccc3c12 [NSA 2, 3-phenyl-1H-benzo[f]chromen-1-one] | activate the AhR pathway in the four cell sub-populations within a period of less than one week | major inhibition | strongest sebosuppressive activity in man; also recorded: active in reducing sebum | AhR activation in the standard EROD assay, % of the level of induction seen with 0.01 μM TCDD (AhR (CYP1A1 induction)): 10-20%; half-life [3]: less than 45 mins; Sebosuppressive effect in mice (active sebaceous glands, gland surface, ratios of sebocytes; FIGS. 5-8) (sebaceous glands; 0.1, 0.5 and 1%, ears, five days per week, analyzed at the third week): very marked effects; also recorded: a reduction in the differentiated compartment of the gland was observed; MADISH-type cystic lesions (sebaceous glands; after five weeks' treatment, any concentration tested): No cystic lesion were observed; Tolerability in mice (sebaceous glands; mouse, in vivo): good tolerability; Blood level by HPLC [4]: < 5 nM
5 | Clc1cc2c(cc1Cl)Oc1cc(Cl)c(Cl)cc1O2 [NSA 3, 2,3,7,8-tetrachlorodibenzo-p-dioxin] | – | degree of specific gene suppression seen with NSA-2 is equivalent to that seen with the structurally unrelated compound NSA-3 | strongest sebosuppressive activity in man | half-life [5]: measureable in years; Activation of the AhR pathway (CYP1A1 staining) in the sebaceous cell sub-populations, stage reached ([1]; mice, topical, first week of treatment): activate the AhR pathway in the four cell sub-populations within a period of less than one week
6 | COc1ccc2nc([S@@+]([O-])Cc3ncc(C)c(OC)c3C)[nH]c2c1 [NSA 7, (S)-5-methoxy-2-[(4-methoxy-3,5-dimethylpyridin-2-yl)methylsulfinyl]-3H-benzoimidazole] | only activates the AhR receptor pathways in Stage One of the cell sub-populations | – | – | Sebosuppressive activity in man (sebum; tested at 8%): no sebosuppressive activity in man
7 | O=c1cc(-c2ccccc2)oc2ccccc12 [NSA-9, 2-phenyl-4H-chromen-4-one] | – | no significant effect | neither 2-phenyl-4H-benzo[h]chromen-4-one nor 2-phenyl-4H-chromen-4-one exhibited any reduction in sebum | –
